Source: patent publication US20240317727A1 (Duke University, priority 2018, published 2024)

Key:
[1] = target: T1, recombinant HSF1 DNA-binding domain (DBD) (Homo sapiens, UniProt Q00613); experiment: Differential Scanning Fluorimetry (DSF), HSF1 DBD melting temperature
T1 sequence (Q00613 15-120): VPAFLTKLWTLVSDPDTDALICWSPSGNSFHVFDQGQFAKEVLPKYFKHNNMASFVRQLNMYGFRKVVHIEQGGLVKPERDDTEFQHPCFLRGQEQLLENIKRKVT

[2] = system: heat shock induced chaperone (Hsp25 and Hsp70) expression; experiment: Heat shock induced chaperone expression in MEFs, immunoblotting; type: cell-based, mouse; details: heat shock 42° C. 30 mins, 6-hour recovery, FIG. 3
Method: The MEFs were then subjected to heat shock stress at 42° C. for 30 mins to activate HSF1. After heat shock, the MEFs were incubated at 37° C. for a 6-hour recovery. The whole cell lysates were collected at the end of the experiment, and proteins of interest, including Hsp25, Hsp70, HSF1 and GAPDH (as loading control) were assessed by immunoblotting with the corresponding antibody.

[3] = system: Hsp27, Hsp70, Hsp90 and p23; experiment: Chaperone protein levels in C4-2 cells, immunoblot; type: cell-based, human; details: FIG. 4A/4B
[4] = system: C4-2 malignant prostate cancer cells vs BPH-1 non-tumorigenic prostate cells; experiment: AlamarBlue cell viability, C4-2 vs BPH-1; type: cell-based, human; details: 96 hours, AlamarBlue assay, FIG. 6A
Method: The cells were treated for 96 hours with the indicated concentrations of the compounds of the disclosure and cell viability was measured with the AlamarBlue assay. FIG. 6B illustrates the results of Compound 0017 used in a 7-week Maximal Tolerated Dose (MTD) study conducted in mice (3 mice identified as 118, 119 and 120). […] After sacrificing the mice on the last day of the administration, mouse liver and heart tissue was isolated, messenger RNA extracted and the transcript abundance of the HSF1 target gene, Hsp70, was evaluated by qRT-PCR relative to the internal RNA control, GAPDH. The results of the vehicle-treated versus Compound 0017-treated experiments were compared.
Based on the chemical structure of Compound 0017 and its activity, and of other HSF1-interacting chemicals identified in the screen, additional derivatives were designed, synthesized and evaluated for binding to HSF1 and preferential inhibition of metastatic prostate cancer cells (C4-2) versus benign prostate cells (BPH-1).

[5] = system: cancer cell lines in the NCI60 collection; experiment: NCI60 collection, cell growth and viability (overall); type: cell-based; details: incubated for two days, FIG. 8
Method: FIG. 8 is a graph showing the compounds of the disclosure suppress the growth of a broad range of cancer types. […] The cancer origins of the different cell lines are indicated with different colors.
HSF1 binding compounds were tested for its activity in suppressing the growth of a broad range of cancer types. For example, Compound 0017 was incubated for two days with a diverse series of cancer cell lines in the NCI60 collection and cell growth and viability were measured, and the results are shown in Table 4.

[6] = system: K-562; experiment: NCI60 cell growth and viability: K-562; type: cell-based; details: K-562, Leukemia, two days
[7] = system: RPMI-8226; experiment: NCI60 cell growth and viability: RPMI-8226; type: cell-based; details: RPMI-8226, Leukemia, two days
[8] = system: HOP-62; experiment: NCI60 cell growth and viability: HOP-62; type: cell-based; details: HOP-62, Non-Small Cell Lung Cancer, two days
[9] = system: NCI-H522; type: cell-based; details: NCI-H522, Non-Small Cell Lung Cancer, two days
[10] = system: COLO 205; experiment: NCI60 cell growth and viability: COLO 205; type: cell-based; details: COLO 205, Colon Cancer, two days
[11] = system: HT29; experiment: NCI60 cell growth and viability: HT29; type: cell-based; details: HT29, Colon Cancer, two days
[12] = system: SF-295; experiment: NCI60 cell growth and viability: SF-295; type: cell-based; details: SF-295, CNS Cancer, two days
[13] = system: SF-539; experiment: NCI60 cell growth and viability: SF-539; type: cell-based; details: SF-539, CNS Cancer, two days
[14] = system: UACC-257; experiment: NCI60 cell growth and viability: UACC-257; type: cell-based; details: UACC-257, Melanoma, two days
[15] = system: A498; experiment: NCI60 cell growth and viability: A498; type: cell-based; details: A498, Renal Cancer, two days
[16] = system: SN12C; experiment: NCI60 cell growth and viability: SN12C; type: cell-based; details: Renal Cancer, two days
[17] = system: TK-10; experiment: NCI60 cell growth and viability: TK-10; type: cell-based; details: TK-10, Renal Cancer, two days
[18] = system: HS 578T; experiment: NCI60 cell growth and viability: HS 578T; type: cell-based; details: Breast Cancer, two days
[19] = system: T-47D; experiment: NCI60 cell growth and viability: T-47D; type: cell-based; details: Breast Cancer, two days
[20] = Homo sapiens, 48 h, read-out: log10 [GI50 (M)] (converted)
[21] = Homo sapiens, 48 h, read-out: log10 [LC50 (M)] (converted)

In the case of O=C(Nc1ccc(F)cc1)Nc1ccc(Cl)c([N+](=O)[O-])c1 [Compound 0017, 1-(4-chloro-3-nitrophenyl)-3-(4-fluorophenyl)urea], the ΔTm at 25 µM ([1]; Table 1, 5 μM HSF1 DBD, 25PM Compound, positive = stabilizes, negative = destabilizes HSF1) is reported as 3 °C, the “binding to HSF1” value ([1]; thermal denaturation assay) is reported as “binds HSF1” and the “heat shock induced chaperone (Hsp25 and Hsp70) expression” value [2] is reported as “dose-dependently inhibited”. The “steady-state protein level of Hsp27, Hsp70, Hsp90 and p23” value [3] was “dose-dependently reduced”, the “viability of C4-2 compared to BPH-1” value [4] was “preferentially inhibit the viability” and the “growth of a broad range of cancer cells” value [5] was “inhibited the growth of a broad range of cancer cells”. The GI50 ([6]; Homo sapiens, K562, 48 h, read-out: log10 [GI50 (M)] (converted)) was 3.24e-06 M, the CC50 ([6]; Homo sapiens, K562, 48 h, read-out: log10 [LC50 (M)] (converted)) was at least 0.0001 M and the “log10 [TGI (M)]” value [6] was −4.00 log10 M. For the same compound, the GI50 [7, 20] was 1.91e-06 M, the CC50 [7, 21] was at least 0.0001 M and the “log10 [TGI (M)]” value [7] was −5.07 log10 M. For the same compound, the “log10 [TGI (M)]” value [8] was −4.80 log10 M, the GI50 [8, 20] was 3.8e-06 M and the CC50 [8, 21] was 5.62e-05 M. For the same compound, the GI50 [9, 20] was 2.45e-06 M, the CC50 [9, 21] was 4.68e-05 M and the “log10 [TGI (M)]” value [9] was −4.97 log10 M. For the same compound, the “log10 [TGI (M)]” value [10] was −5.20 log10 M, the GI50 [10, 20] was 2.45e-06 M and the CC50 [10, 21] was 3.47e-05 M. The “log10 [TGI (M)]” value [11] was −4.91 log10 M, the GI50 ([11]; Homo sapiens, HT-29, 48 h, read-out: log10 [GI50 (M)] (converted)) was 3.24e-06 M and the CC50 ([11]; Homo sapiens, HT-29, 48 h, read-out: log10 [LC50 (M)] (converted)) was 5.37e-05 M. For the same compound, the GI50 [12, 20] was 2.29e-06 M, the CC50 [12, 21] was 3.09e-05 M and the “log10 [TGI (M)]” value [12] was −5.10 log10 M. The GI50 [13, 20] was 3.89e-06 M, the CC50 [13, 21] was 4.07e-05 M and the “log10 [TGI (M)]” value [13] was −4.84 log10 M. For the same compound, the GI50 [14, 20] was 2.75e-06 M, the CC50 [14, 21] was 3.09e-05 M and the “log10 [TGI (M)]” value [14] was −5.05 log10 M. For the same compound, the “log10 [TGI (M)]” value [15] was −5.24 log10 M, the GI50 [15, 20] was 1.82e-06 M and the CC50 [15, 21] was 2.34e-05 M. For the same compound, the GI50 [16, 20] was 2.95e-06 M, the CC50 [16, 21] was 4.27e-05 M and the “log10 [TGI (M)]” value [16] was −4.93 log10 M. The GI50 [17, 20] was 4.07e-06 M, the CC50 [17, 21] was 6.92e-05 M and the “log10 [TGI (M)]” value [17] was −4.70 log10 M. For the same compound, the “log10 [TGI (M)]” value [18] was −4.62 log10 M, the GI50 [18, 20] was 3.98e-06 M and the CC50 [18, 21] was at least 0.0001 M. The “log10 [TGI (M)]” value [19] was −5.01 log10 M, the GI50 ([19]; Homo sapiens, T47D, 48 h, read-out: log10 [GI50 (M)] (converted)) was 2.19e-06 M and the CC50 ([19]; Homo sapiens, T47D, 48 h, read-out: log10 [LC50 (M)] (converted)) was 5.13e-05 M.
